PubChem BioAssay AID330 (DTP/NCI, 2004)
Values joined by “and” are separate entries in the source; they are usually repeats but may differ in a detail not shown here. Equal values may be shown once. Inconclusive results and toxic doses are left out.

Tested on: P388 leukemia ip, CD2F1 mice, survival T/C
Assay: NCI In Vivo Anticancer Drug Screen. Data for tumor model P388 Leukemia (intraperitoneal) in CD2F1 (CDF1) mice
Settings: endpoint: median survival time, higher = longer survival
How it was run: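 Mice carrying the transplanted tumor received test compound or vehicle. Survival was recorded in each group, and the value is the treated-group measurement divided by that of the vehicle-treated control group.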

[1] = dose: 12.5 mg/kg/injection, schedule: Q01DX009 (ip), vehicle: other
[2] = dose: 25.0 mg/kg/injection, schedule: Q01DX009 (ip), vehicle: other
[3] = dose: 50.0 mg/kg/injection, schedule: Q01DX009 (ip), vehicle: other
[4] = dose: 60.0 mg/kg/injection, schedule: Q01DX005 (ip), vehicle: saline with Tween-80
[5] = dose: 120.0 mg/kg/injection, schedule: Q01DX005 (ip), vehicle: saline with Tween-80
[6] = dose: 50.0 mg/kg/injection, schedule: Q01DX009 (ip), vehicle: saline with Tween-80
[7] = dose: 100.0 mg/kg/injection, schedule: Q01DX009 (ip), vehicle: saline with Tween-80
[8] = dose: 200.0 mg/kg/injection, schedule: Q01DX009 (ip), vehicle: saline with Tween-80
[9] = dose: 100.0 mg/kg/injection, schedule: Q04DX003 (ip), vehicle: saline with Tween-80
[10] = dose: 200.0 mg/kg/injection, schedule: Q04DX003 (ip), vehicle: saline with Tween-80
[11] = dose: 25.0 mg/kg/injection, schedule: Q01DX005 (ip), vehicle: Klucel (hydroxypropylcellulose) (HPC)
[12] = dose: 240.0 mg/kg/injection, schedule: Q01DX005 (ip), vehicle: saline with Tween-80
[13] = dose: 50.0 mg/kg/injection, schedule: Q01DX005 (ip), vehicle: Klucel (hydroxypropylcellulose) (HPC)
[14] = dose: 100.0 mg/kg/injection, schedule: Q01DX005 (ip), vehicle: Klucel (hydroxypropylcellulose) (HPC)

SMILES: CC(=O)Nc1ccc2c(Nc3ccc(NS(C)(=O)=O)cc3)c3ccccc3nc2c1
- T/C (dose: 0.09 mg/kg/injection, schedule: Q01DX009 (ip), vehicle: saline): 151 % of control
- T/C (dose: 0.09 mg/kg/injection, schedule: Q04DX003 (ip), vehicle: saline): 156 % of control
- T/C (dose: 0.13 mg/kg/injection, schedule: Q01DX009 (ip), vehicle: saline): 151 % of control
- T/C (dose: 0.13 mg/kg/injection, schedule: Q04DX003 (ip), vehicle: saline): 175 % of control
- T/C (dose: 0.2 mg/kg/injection, schedule: Q01DX009 (ip), vehicle: saline): 164 % of control
- T/C (dose: 0.2 mg/kg/injection, schedule: Q04DX003 (ip), vehicle: saline): 166 % of control
- T/C (dose: 0.29 mg/kg/injection, schedule: Q01DX009 (ip), vehicle: saline): 190 % of control
- T/C (dose: 0.3 mg/kg/injection, schedule: Q01DX009 (ip), vehicle: saline): 169 % of control
- T/C (dose: 0.3 mg/kg/injection, schedule: Q04DX003 (ip), vehicle: saline): 175 % of control
- T/C (dose: 0.44 mg/kg/injection, schedule: Q01DX009 (ip), vehicle: saline): 193 % of control
- T/C (dose: 0.66 mg/kg/injection, schedule: Q01DX009 (ip), vehicle: saline): 193 % of control
- T/C (dose: 1.0 mg/kg/injection, schedule: Q01DX009 (ip), vehicle: saline): 200 % of control
- T/C (dose: 1.0 mg/kg/injection, schedule: Q04DX003 (ip), vehicle: saline): 155 % of control
- T/C (dose: 2.2 mg/kg/injection, schedule: Q04DX003 (ip), vehicle: saline): 177 % of control
- T/C (dose: 3.3 mg/kg/injection, schedule: Q04DX003 (ip), vehicle: saline): 186 % of control
- T/C (dose: 5.0 mg/kg/injection, schedule: Q04DX003 (ip), vehicle: saline): 227 % of control
- T/C (dose: 7.5 mg/kg/injection, schedule: Q04DX003 (ip), vehicle: saline): 245 % of control

SMILES: Clc1ccc(C#Cc2ccc(Cl)cc2)cc1
- T/C (dose: 3.13 mg/kg/injection, schedule: Q01DX009 (ip), vehicle: saline with Tween-80): 109 % of control
- T/C (dose: 6.25 mg/kg/injection, schedule: Q01DX009 (ip), vehicle: saline with Tween-80): 113 % of control

SMILES: Clc1ccc(CN2Cc3ccc4cccnc4c3OC2c2ccccn2)cc1Cl (stereo unspecified)
- T/C (dose: 50.0 mg/kg/injection, schedule: Q01DX009 (ip), vehicle: Klucel (hydroxypropylcellulose) (HPC)): 100 % of control
- T/C (dose: 100.0 mg/kg/injection, schedule: Q01DX009 (ip), vehicle: Klucel (hydroxypropylcellulose) (HPC)): 101 % of control
- T/C (dose: 200.0 mg/kg/injection, schedule: Q01DX009 (ip), vehicle: Klucel (hydroxypropylcellulose) (HPC)): 101 % of control

SMILES: OCC1OC2OC3C(CO)OC(OC4C(CO)OC(OC5C(CO)OC(OC6C(CO)OC(OC7C(CO)OC(OC1C(O)C2O)C(O)C7O)C(O)C6O)C(O)C5O)C(O)C4O)C(O)C3O (stereo unspecified) (tested in a mixture with another compound)
- T/C (dose: 3.12 mg/kg/injection, schedule: Q01DX009 (ip), vehicle: water): 105 % of control
- T/C (dose: 6.25 mg/kg/injection, schedule: Q01DX009 (ip), vehicle: water): 108 % of control
- T/C (dose: 12.5 mg/kg/injection, schedule: Q01DX009 (ip), vehicle: water): 105 % of control
- T/C (dose: 25.0 mg/kg/injection, schedule: Q01DX009 (ip), vehicle: water): 122 % of control and 111 % of control and 115 % of control
- T/C (dose: 50.0 mg/kg/injection, schedule: Q01DX009 (ip), vehicle: water): 109 % of control and 111 % of control and 123 % of control
- T/C (dose: 200.0 mg/kg/injection, schedule: Q01DX009 (ip), vehicle: water): 164 % of control
- T/C (dose: 400.0 mg/kg/injection, schedule: Q01DX009 (ip), vehicle: water): 250 % of control

SMILES: Nc1cc2c(cn1)[nH]c1ccccc12
- T/C [1]: 108 % of control
- T/C [2]: 101 % of control
- T/C [3]: 108 % of control
- T/C [4]: 97 % of control
- T/C (dose: 100.0 mg/kg/injection, schedule: Q01DX009 (ip), vehicle: other): 106 % of control
- T/C [5]: 106 % of control

SMILES: O=C(CC(O)(C(F)(F)F)C(F)(F)F)c1ccc(C(=O)CC(O)(C(F)(F)F)C(F)(F)F)cc1
- T/C [1]: 100 % of control
- T/C [2]: 100 % of control
- T/C [3]: 100 % of control
- T/C (dose: 66.0 mg/kg/injection, schedule: Q04DX003 (ip), vehicle: other): 95 % of control
- T/C (dose: 100.0 mg/kg/injection, schedule: Q04DX003 (ip), vehicle: other): 95 % of control
- T/C (dose: 150.0 mg/kg/injection, schedule: Q04DX003 (ip), vehicle: other): 100 % of control

SMILES: Nc1ccc(Br)cc1[N+](=O)[O-]
- T/C [6]: 101 % of control
- T/C [7]: 107 % of control
- T/C [8]: 100 % of control
- T/C (dose: 400.0 mg/kg/injection, schedule: Q01DX009 (ip), vehicle: saline with Tween-80): 117 % of control

SMILES: Cc1csc2nc(-c3ccco3)nn12
- T/C (dose: 60.0 mg/kg/injection, schedule: Q01DX005 (ip), vehicle: Klucel (hydroxypropylcellulose) (HPC)): 107 % of control
- T/C (dose: 120.0 mg/kg/injection, schedule: Q01DX005 (ip), vehicle: Klucel (hydroxypropylcellulose) (HPC)): 107 % of control

SMILES: CCCCCCCCCCCCN(C)S(=O)(=O)c1ccc(Cl)c(N)c1
- T/C (dose: 50.0 mg/kg/injection, schedule: Q04DX003 (ip), vehicle: saline with Tween-80): 95 % of control
- T/C [9]: 100 % of control
- T/C [10]: 95 % of control

SMILES: CCCCN(CCCC)c1ccc(C(=N)c2ccc(N(CCCC)CCCC)cc2)cc1
- T/C (dose: 6.25 mg/kg/injection, schedule: Q01DX005 (ip), vehicle: Klucel (hydroxypropylcellulose) (HPC)): 108 % of control
- T/C (dose: 12.5 mg/kg/injection, schedule: Q01DX005 (ip), vehicle: Klucel (hydroxypropylcellulose) (HPC)): 108 % of control
- T/C [11]: 117 % of control

SMILES: CCCCNC(=O)Oc1ccc(OCc2ccccc2)cc1
- T/C [9]: 100 % of control
- T/C [10]: 95 % of control
- T/C (dose: 400.0 mg/kg/injection, schedule: Q04DX003 (ip), vehicle: saline with Tween-80): 90 % of control

SMILES: O=C1OC(Oc2ccccc2OC2OC(=O)c3ccccc32)c2ccccc21 (stereo unspecified)
- T/C [4]: 98 % of control
- T/C [5]: 106 % of control
- T/C [12]: 100 % of control

SMILES: CCn1c2ccccc2c2cc(N=Nc3ccc(N)c4ccccc34)ccc21
- T/C (dose: 100.0 mg/kg/injection, schedule: Q04DX003 (ip), vehicle: Klucel (hydroxypropylcellulose) (HPC)): 97 % of control
- T/C (dose: 200.0 mg/kg/injection, schedule: Q04DX003 (ip), vehicle: Klucel (hydroxypropylcellulose) (HPC)): 101 % of control
- T/C (dose: 400.0 mg/kg/injection, schedule: Q04DX003 (ip), vehicle: Klucel (hydroxypropylcellulose) (HPC)): 94 % of control

SMILES: COc1ccc(-c2cc[n+]([O-])c(C)c2C)c(OC)c1OC
- T/C [6]: 94 % of control
- T/C [7]: 96 % of control
- T/C [8]: 92 % of control

SMILES: N#C/C(=C/c1cc(Br)c2c(c1)OCO2)C(N)=O
- T/C (dose: 100.0 mg/kg/injection, schedule: Q04DX002 (ip), vehicle: saline with Tween-80): 100 % of control
- T/C (dose: 200.0 mg/kg/injection, schedule: Q04DX002 (ip), vehicle: saline with Tween-80): 98 % of control
- T/C (dose: 400.0 mg/kg/injection, schedule: Q04DX002 (ip), vehicle: saline with Tween-80): 97 % of control

SMILES: CCOc1cc2c(cc1C(C)c1cc(OC)c(OC)c(OC)c1)OCO2 (stereo unspecified)
- T/C [13]: 96 % of control
- T/C [14]: 102 % of control
- T/C (dose: 200.0 mg/kg/injection, schedule: Q01DX005 (ip), vehicle: Klucel (hydroxypropylcellulose) (HPC)): 96 % of control

SMILES: C=CCc1cccc2cc(C(=O)OCCCN(CC)CC)c(=O)oc12
- T/C (dose: 50.0 mg/kg/injection, schedule: Q01DX005 (ip), vehicle: saline with Tween-80): 95 % of control
- T/C (dose: 100.0 mg/kg/injection, schedule: Q01DX005 (ip), vehicle: saline with Tween-80): 99 % of control

SMILES: COC(=O)C1(CC(=O)c2ccc(Cl)c(Cl)c2)NC(=S)NC(=O)C1C#N (stereo unspecified)
- T/C [4]: 106 % of control
- T/C [5]: 97 % of control
- T/C [12]: 96 % of control

SMILES: COC1/C=C\OC2(C)Oc3c(C)c(O)c4c(O)c(c(/C=N/N(Cc5ccccc5)C56CC7CC(CC(C7)C5)C6)c(O)c4c3C2=O)NC(=O)/C(C)=C\C=C\C(C)C(O)C(C)C(O)C(C)C(OC(C)=O)C1C (stereo unspecified)
- T/C [6]: 102 % of control
- T/C [7]: 100 % of control

SMILES: Clc1cccc(Cl)c1C(Nc1cnccn1)Nc1cnccn1
- T/C [11]: 101 % of control and 104 % of control
- T/C [13]: 101 % of control (2×) and 116 % of control
- T/C [14]: 106 % of control and 113 % of control
